Laboratory results from the NIST ThermoML archive (doi:10.1021/je900596d).

Conditions: 362.9 K, Vibrating tube method

FC(F)=C(F)C(F)(F)F [hexafluoropropene]
Conditions	mass density [kg/m3]
986.7 kPa, Fluid (supercritical or subcritical phases)	55.35
1010.4 kPa, Fluid (supercritical or subcritical phases)	56.58
1044 kPa, Fluid (supercritical or subcritical phases)	59.01
1060.4 kPa, Fluid (supercritical or subcritical phases)	59.9
1076.4 kPa, Fluid (supercritical or subcritical phases)	61.11
1097.9 kPa, Fluid (supercritical or subcritical phases)	62.31
1119.7 kPa, Fluid (supercritical or subcritical phases)	63.86
1141.5 kPa, Fluid (supercritical or subcritical phases)	65.33
1162.5 kPa, Fluid (supercritical or subcritical phases)	66.89
1202.5 kPa, Fluid (supercritical or subcritical phases)	69.4
1221.4 kPa, Fluid (supercritical or subcritical phases)	70.92
1239.6 kPa, Fluid (supercritical or subcritical phases)	71.99
1257.3 kPa, Fluid (supercritical or subcritical phases)	73.4
1274.3 kPa, Fluid (supercritical or subcritical phases)	74.42
1293.3 kPa, Fluid (supercritical or subcritical phases)	76
1312.3 kPa, Fluid (supercritical or subcritical phases)	77.04
1331.5 kPa, Fluid (supercritical or subcritical phases)	78.67
1349 kPa, Fluid (supercritical or subcritical phases)	79.84
1367.1 kPa, Fluid (supercritical or subcritical phases)	81.15
1388 kPa, Fluid (supercritical or subcritical phases)	82.53
1408.2 kPa, Fluid (supercritical or subcritical phases)	83.98
1429.7 kPa, Fluid (supercritical or subcritical phases)	85.75
1447.9 kPa, Fluid (supercritical or subcritical phases)	86.99
1484.9 kPa, Fluid (supercritical or subcritical phases)	89.9
1503.2 kPa, Fluid (supercritical or subcritical phases)	91.22
1521.3 kPa, Fluid (supercritical or subcritical phases)	92.61
1544.9 kPa, Fluid (supercritical or subcritical phases)	94.44
1567.8 kPa, Fluid (supercritical or subcritical phases)	96.26
1613.4 kPa, Fluid (supercritical or subcritical phases)	99.81
1634.9 kPa, Fluid (supercritical or subcritical phases)	101.65
1655.8 kPa, Fluid (supercritical or subcritical phases)	103.37
1676.7 kPa, Fluid (supercritical or subcritical phases)	104.81
1696.6 kPa, Fluid (supercritical or subcritical phases)	106.47
1716 kPa, Fluid (supercritical or subcritical phases)	108.07
1734.8 kPa, Fluid (supercritical or subcritical phases)	109.59
1753 kPa, Fluid (supercritical or subcritical phases)	111.4
1771.1 kPa, Fluid (supercritical or subcritical phases)	112.78
1788.6 kPa, Fluid (supercritical or subcritical phases)	114.27
1805.4 kPa, Fluid (supercritical or subcritical phases)	115.72
1838.2 kPa, Fluid (supercritical or subcritical phases)	118.54
1868.9 kPa, Fluid (supercritical or subcritical phases)	121.28
1898.3 kPa, Fluid (supercritical or subcritical phases)	124.13
1923.7 kPa, Fluid (supercritical or subcritical phases)	126.25
1953.6 kPa, Fluid (supercritical or subcritical phases)	129.06
1971.3 kPa, Fluid (supercritical or subcritical phases)	130.89
1988.2 kPa, Fluid (supercritical or subcritical phases)	132.28
2005 kPa, Fluid (supercritical or subcritical phases)	133.86
2021.3 kPa, Fluid (supercritical or subcritical phases)	135.65
2037.3 kPa, Fluid (supercritical or subcritical phases)	137.17
2066.9 kPa, Fluid (supercritical or subcritical phases)	140.08
2099 kPa, Fluid (supercritical or subcritical phases)	143.21
2115.6 kPa, Fluid (supercritical or subcritical phases)	144.99
2133.5 kPa, Fluid (supercritical or subcritical phases)	146.69
2152 kPa, Fluid (supercritical or subcritical phases)	148.88
2207.8 kPa, Fluid (supercritical or subcritical phases)	154.82
2239 kPa, Fluid (supercritical or subcritical phases)	158.23
2255.7 kPa, Fluid (supercritical or subcritical phases)	160.15
2279.2 kPa, Fluid (supercritical or subcritical phases)	162.54
2296 kPa, Fluid (supercritical or subcritical phases)	164.49
2320.6 kPa, Fluid (supercritical or subcritical phases)	167.17
2341.1 kPa, Fluid (supercritical or subcritical phases)	169.73
2363.6 kPa, Fluid (supercritical or subcritical phases)	172.35
2382.4 kPa, Fluid (supercritical or subcritical phases)	174.89
2399.2 kPa, Fluid (supercritical or subcritical phases)	176.97
2416.1 kPa, Fluid (supercritical or subcritical phases)	178.92
2454.2 kPa, Fluid (supercritical or subcritical phases)	183.72
2471.2 kPa, Fluid (supercritical or subcritical phases)	185.86
2493.7 kPa, Fluid (supercritical or subcritical phases)	188.92
2510.8 kPa, Fluid (supercritical or subcritical phases)	191.35
2532.7 kPa, Fluid (supercritical or subcritical phases)	194.2
2568.3 kPa, Fluid (supercritical or subcritical phases)	199.28
2584.5 kPa, Fluid (supercritical or subcritical phases)	201.68
2637.6 kPa, Fluid (supercritical or subcritical phases)	209.57
2655.8 kPa, Fluid (supercritical or subcritical phases)	212.2
2673.6 kPa, Fluid (supercritical or subcritical phases)	215.1
2690.3 kPa, Fluid (supercritical or subcritical phases)	217.71
2706.4 kPa, Fluid (supercritical or subcritical phases)	220.44
2736.2 kPa, Fluid (supercritical or subcritical phases)	225.31
2764.5 kPa, Fluid (supercritical or subcritical phases)	230.31
2781.5 kPa, Fluid (supercritical or subcritical phases)	233.26
2809.5 kPa, Fluid (supercritical or subcritical phases)	238.5
2870.6 kPa, Fluid (supercritical or subcritical phases)	250.29
2897.9 kPa, Fluid (supercritical or subcritical phases)	256.08
2916.5 kPa, Fluid (supercritical or subcritical phases)	260.21
2944.7 kPa, Fluid (supercritical or subcritical phases)	266.58
2978.3 kPa, Fluid (supercritical or subcritical phases)	274.33
2997 kPa, Fluid (supercritical or subcritical phases)	278.8
3015.2 kPa, Fluid (supercritical or subcritical phases)	283.34
3032.8 kPa, Fluid (supercritical or subcritical phases)	287.81
3049.7 kPa, Fluid (supercritical or subcritical phases)	292.35
3066.4 kPa, Fluid (supercritical or subcritical phases)	297.12
3119.6 kPa, Fluid (supercritical or subcritical phases)	313.41
3140.3 kPa, Fluid (supercritical or subcritical phases)	320.42
3159.2 kPa, Fluid (supercritical or subcritical phases)	327.22
3176.3 kPa, Fluid (supercritical or subcritical phases)	333.78
3193.5 kPa, Fluid (supercritical or subcritical phases)	340.76
3209.9 kPa, Fluid (supercritical or subcritical phases)	347.93
3229.3 kPa, Fluid (supercritical or subcritical phases)	357.01
3246.9 kPa, Fluid (supercritical or subcritical phases)	366.07
3263.4 kPa, Fluid (supercritical or subcritical phases)	375.24
3285.9 kPa, Fluid (supercritical or subcritical phases)	389.23
3305.8 kPa, Fluid (supercritical or subcritical phases)	403.5
3341.5 kPa, Fluid (supercritical or subcritical phases)	436.07
3360.9 kPa, Fluid (supercritical or subcritical phases)	459.89
3377.9 kPa, Fluid (supercritical or subcritical phases)	530.57
3394.4 kPa, Fluid (supercritical or subcritical phases)	567.77
3410.4 kPa, Fluid (supercritical or subcritical phases)	601.27
3426.7 kPa, Fluid (supercritical or subcritical phases)	633.69
3445.3 kPa, Fluid (supercritical or subcritical phases)	659.79
3463.4 kPa, Fluid (supercritical or subcritical phases)	682.18
3480.7 kPa, Fluid (supercritical or subcritical phases)	701.66
3498.4 kPa, Fluid (supercritical or subcritical phases)	717.14
4505.3 kPa, Fluid (supercritical or subcritical phases)	920.24
4525.6 kPa, Fluid (supercritical or subcritical phases)	921.9
4552.8 kPa, Fluid (supercritical or subcritical phases)	924.12
4579.3 kPa, Fluid (supercritical or subcritical phases)	926.3
4626.5 kPa, Fluid (supercritical or subcritical phases)	929.99
4646.5 kPa, Fluid (supercritical or subcritical phases)	931.47
4666.9 kPa, Fluid (supercritical or subcritical phases)	932.99
4687.6 kPa, Fluid (supercritical or subcritical phases)	934.6
4707.8 kPa, Fluid (supercritical or subcritical phases)	936.1
4762.6 kPa, Liquid	939.84
4784.8 kPa, Liquid	941.44
4810.7 kPa, Liquid	943.09
4836.8 kPa, Liquid	944.88
4878.2 kPa, Liquid	947.51
4899.5 kPa, Liquid	948.95
4921.9 kPa, Liquid	950.41
4942.5 kPa, Liquid	951.63
4962.8 kPa, Liquid	952.76
4983.6 kPa, Liquid	954.01
5010.6 kPa, Liquid	955.79
5047.3 kPa, Liquid	957.89
